What was measured:
[1] = target: T1, Human LBAT (Homo sapiens, UniProt Q14973); assay: LBAT (h) assay: 3H-taurocholic acid uptake in human LBAT-overexpressing cells; format: cell-based; settings: 0.3 μM 3H-taurocholic acid and 7.5 μM cold taurocholic acid, 20 minutes, read-out: hLBAT IC50
T1 construct: expressed in transfected cells; cells kept under Geneticin selection
T1 sequence (Q14973 1-349): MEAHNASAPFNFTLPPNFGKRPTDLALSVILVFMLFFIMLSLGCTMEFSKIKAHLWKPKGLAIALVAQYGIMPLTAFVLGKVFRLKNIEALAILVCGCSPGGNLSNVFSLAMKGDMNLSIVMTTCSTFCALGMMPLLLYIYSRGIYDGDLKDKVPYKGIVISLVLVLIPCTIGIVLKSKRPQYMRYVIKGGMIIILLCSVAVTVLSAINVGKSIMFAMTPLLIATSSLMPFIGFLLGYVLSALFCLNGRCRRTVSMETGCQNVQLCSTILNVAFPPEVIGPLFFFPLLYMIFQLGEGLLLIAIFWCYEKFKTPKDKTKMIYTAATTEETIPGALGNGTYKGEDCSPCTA
Protocol: 20,000 cells (Human or Mouse LBAT-overexpressing cells) were seeded in 96-wells plate (Corning CLS3809) in 100 μL MEM-alpha medium (Gibco 12571-063) supplemented with 10% FBS (Gibco 10438026) containing Geneticin (Gibco 10131-027) (1 mg/mL) and incubated at 37° C. in 5% CO2 for 24 hours. After incubation, media was decanted from the wells and cells were washed two times with 300 μL of basal MEM-alpha medium (FBS-free). After decanting basal MEM-alpha medium each time, plates were tapped against paper towel to ensure maximum removal of residual media. For human LBAT, incubation mix was prepared by adding test inhibitor dilutions (3-fold serial dilution in DMSO (Sigma D2650), 10 points) in MEM-alpha (without FBS) containing 0.3 μM 3H-taurocholic acid (ARC ART-1368) and 7.5 μM cold taurocholic acid (Sigma T4009) (maintaining 0.2% final DMSO concentration). For mouse LBAT, incubation mix was prepared by adding test inhibitor dilutions (3-fold serial dilution in DMSO, 10 points) in MEM-alpha (without FBS) containing 0.3 μM 3H-taurocholic acid and 25 μM cold taurocholic acid maintaining 0.2% final DMSO concentration).
50 μL of incubation mix containing test inhibitors was then added to the wells (in duplicate) and the plates were incubated for 20 minutes in a CO2 incubator at 37° C. After incubation, the reaction was stopped by keeping the plates on ice water mix for 2-3 minutes and then the incubation mix was aspirated completely from the wells. The wells were washed two times with 250 μL of chilled unlabelled 1 mM taurocholic acid dissolved in HEPES (Gibco 15630080)-buffered (10 mM) HBSS (Gibco 14175079) (pH 7.4). The plates were tapped against a paper towel after every wash to ensure maximum removal of blocking buffer.
100 μL of MicroScint-20 (PerkinElmer 6013621) was added to the wells and kept overnight at room temperature before reading the plates in TopCount NXT™ Microplate Scintillation and Luminescence Counter from PerkinElmer under 3H Test protocol (set at 120 seconds reading time per well, with normal plate orientation).
All test compounds were provided in powder form at room temperature. 10 mM DMSO stocks of the test compounds were prepared, aliquoted and stored at −20° C. From the 10 mM DMSO stock of the compounds, a 3-fold serial dilution in DMSO was prepared to get a total of 10 dilutions of the test compounds. 0.5 μL of this dilution in DMSO was added to 250 μL of FBS-free basal media containing 3H-taurocholic acid and cold taurocholic acid to prepare the incubation mixture.

[2] = Bidirectional permeability assay (Caco-2 cells); format: in vitro ADME; settings: human, Caco-2, pH 7.4, 10 μM in FaSSIF buffer, 120 minutes at 37° C.; for Papp A→B at 120 min, 10 μM: absorptive direction (A2B); for Papp B→A at 120 min, 10 μM: secretory direction (B2A)
Protocol: Caco-2 cells (Evotec) were seeded at a density of 70,000 cells/well in Millicell® 24-well cell culture insert plates and maintained in an incubator (37° C., 5% CO2, 95% RH) for 21 days with media change on alternate days.
Stock solutions (10 mM) of the test compounds, atenolol (low permeability marker), propranolol (high permeability marker) and digoxin (substrate for P-gp transport pathway) were prepared in dimethylsulfoxide (DMSO). An intermediate stock solution (1 mM) was prepared by diluting 10 μL of 10 mM master stock solution with 90 μL of neat DMSO. A working stock solution (10 μM) was prepared by diluting 50 μL of 1 mM with 4950 μL of FaSSIF buffer. Post addition of compounds to the FaSSIF, samples were subjected to sonication for 2 hours, and centrifuged at 4000 RPM for 30 minutes at 37° C. The 4 mL of resultant supernatant was directly used in the assay. The final DMSO concentration in the transport experiments was 1%.
On the day of assay, Caco-2 monolayers were washed twice with transport buffer (HBSS, pH 7.4) and pre-incubated for 30 min (37° C., 5% CO2, 95% RH) in an incubator. The electrical resistance of the monolayers was measured with a Millicell®-ERS system. Monolayers with trans-epithelial electrical resistance (TEER) values greater than 350 ohm·cm^2 were selected for the assay.
The assay was conducted in absorptive direction (A2B) and secretory (B2A) directions. Transport experiments were initiated by addition of transport assay buffer (FaSSIF buffer prepared in HBSS) consisting of compounds to the donor compartment (apical chamber A-B; basolateral chamber B-A) in duplicate (n=2) wells. Drug free HBSS buffer (pH 7.4) containing 1% bovine serum albumin (BSA) was introduced to the receiver (A-B-basolateral; B-A-Apical) compartments. The volumes of apical and basolateral compartments were 0.4 and 0.8 mL, respectively. After adding dosing solution, plates were incubated in an incubator for 120 minutes at 37° C. After 120 minutes, donor and receiver samples were collected and matrix matched (1:1, 30 μL study sample+30 μL blank buffer) with the opposite buffer. Dosing samples matrix matched (1:1, 30 μL study sample+30 μL blank buffer) with the opposite buffer. Samples were processed by adding acetonitrile containing internal standard (60 μL study sample+200 μL acetonitrile containing internal standard-Tolbutamide, 500 ng/mL). Samples were vortexed and centrifuged at 4000 rpm for 10 minutes. The obtained supernatant (100 μL) was diluted with 100 μL of water and transferred to fresh 96 well plates. The concentration of compounds in the samples was analyzed by liquid chromatography tandem mass spectrometry (LC-MS/MS) method using discovery grade bio-analytical method, as applicable.
The mean apparent permeability (Papp×10^−6 cm/sec) of the test compounds, atenolol, propranolol and digoxin were calculated as follows:
where dq/dt=rate of transport (rate of transport of compound in the receiver compartment), C0=initial concentration in the donor compartment, A=surface area of the effective filter membrane.

IC50 [1] | Papp A→B at 120 min, 10 μM [2] | Papp B→A at 120 min, 10 μM [2] | Compound
2.82 µM | 4.1 ×10⁻⁶ cm/s | 1.9 ×10⁻⁶ cm/s | CCCCC1(CCCC)CN(c2ccc(Br)cc2)c2cc(SC)c(OCC(=O)O)cc2S(=O)(=O)C1 [Example 3, 2-((5-(4-bromophenyl)-3,3-dibutyl-7-(methylthio)-1,1-dioxido-2,3,4,5-tetrahydro-1,5-benzothiazepin-8-yl)oxy)acetic Acid]
1.99 µM | 3.3 ×10⁻⁶ cm/s | 8.9 ×10⁻⁶ cm/s | CCCCC1(CCCC)CN(c2ccc(O)cc2)c2cc(SC)c(OCC(=O)O)cc2S(=O)(=O)C1 [Example 4, 2-((3,3-dibutyl-5-(4-hydroxyphenyl)-7-(methylthio)-1,1-dioxido-2,3,4,5-tetrahydro-1,5-benzothiazepin-8-yl)oxy)acetic Acid]

— patent US11014898B1, “Benzothiazepine compounds and their use as bile acid modulators” (Albireo AB, priority 2020, dated 2021)
